Reference: patent US11053230B2, “3-hydroxy-imidazolidin-4-one compounds as inhibitors of indoleamine 2,3-dioxygenase” (Netherlands Translational Research Center B.V., priority 2017, dated 2021)
Several values for one entry are separate records, joined by “and”; a condition that tells them apart may be missing. Equal entries are not always repeated.

Biological target: T1, IDO1 (Homo sapiens, UniProt P14902)
T1 construct: Recombinant full-length IDO1 (Seegers, N., et al.) and all other assay components were diluted in IDO1 reaction buffer; made in house
Assay: Biochemical IDO1 assay (NFK GreenScreen)
Conditions: NFK GreenScreen; 25 nM IDO1, 100 μM L-tryptophan; read-out: IC50, inhibitory potency on IDO1
Description: Inhibition of IDO1 activity can be measured by determining the enzymatic conversion of L-tryptophan into N-formylkynurenine (NFK) in a reaction mixture containing IDO1 and test compound. The formation of NFK can be detected directly by, for instance, high-performance liquid chromatography (HPLC) methods, or by intrinsic fluorescence.
Compounds were serially diluted in dimethylsulfoxide (DMSO) and finally in IDO1 reaction buffer, consisting of 50 mM NaH2PO4, pH7.0, supplemented with 0.05% Tween-20 (cat. No. P7949; Sigma Aldrich) and 1% glycerol. Recombinant full-length IDO1 (Seegers, N., et al.) and all other assay components were diluted in IDO1 reaction buffer. […] Subsequently, 10 μl of 0.4 mM of the substrate L-tryptophan was added, i.e., the final concentration of L-tryptophan was 100 μM. The DMSO concentration in the assay was 0.3%. […] Incubation was continued for 60 min at room temperature. Then, 10 μl of NFK Green™ (NTRC, Oss, The Netherlands) was added, the plate was sealed, and the reaction was developed for 3 hours at 37° C. To determine the production of N-formyl kynurenine (NFK), the seal was removed and fluorescence was read on an EnVision multimode reader (Perkin Elmer, Waltham, Mass., USA). IC50 were calculated using XLfit™ software (ID Business Solutions, Ltd., Surrey, U.K.).

T1 sequence (P14902 whole entry): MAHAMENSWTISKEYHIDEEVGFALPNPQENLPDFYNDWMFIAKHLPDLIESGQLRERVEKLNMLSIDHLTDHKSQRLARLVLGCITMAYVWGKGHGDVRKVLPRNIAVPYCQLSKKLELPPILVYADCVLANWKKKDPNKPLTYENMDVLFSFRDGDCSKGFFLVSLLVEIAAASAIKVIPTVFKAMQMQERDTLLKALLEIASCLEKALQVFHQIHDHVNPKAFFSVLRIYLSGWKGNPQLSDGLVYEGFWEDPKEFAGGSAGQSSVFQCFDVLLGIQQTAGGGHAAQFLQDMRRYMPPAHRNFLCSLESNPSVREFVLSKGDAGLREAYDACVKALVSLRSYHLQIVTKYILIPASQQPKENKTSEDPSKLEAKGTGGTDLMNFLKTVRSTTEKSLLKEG

**Q.** For `O=C1CN(C(=O)c2ccncc2F)C(c2cc(Br)cs2)N1O` (stereo not drawn) [Example 73, 2-(4-Bromo-2-thienyl)-1-(3-fluoropyridine-4-carbonyl)-3-hydroxy-imidazolidin-4-one], which IC50 is on record?
**A.** Its IC50 is at most 1000 nM.

**Q.** For `O=C1CN(C(=O)c2c(F)cccc2F)C(c2cc([N+](=O)[O-])cs2)N1O` (stereo not drawn) [Example 21, 1-(2,6-Difluorobenzoyl)-3-hydroxy-2-(4-nitro-2-thienyl)imidazolidin-4-one], which IC50 is on record?
**A.** Its IC50 is at most 1000 nM.

**Q.** Which IC50 does the source give for `O=C1CN(C(=O)c2c(F)c(F)c(F)c(F)c2F)C(c2cc(Br)cs2)N1O` (stereo not drawn) [Example 63, 2-(4-Bromo-2-thienyl)-3-hydroxy-1-(2,3,4,5,6-pentafluorobenzoyl)imidazolidin-4-one] here?
**A.** The IC50 was at most 1000 nM.

**Q.** For `O=C1CN(C(=O)c2c(F)ccc(-c3ccc4ccccc4c3)c2F)C(c2cc(Br)cs2)N1O` (stereo not drawn) [Example 135, 2-(4-Bromo-2-thienyl)-1-[2,6-difluoro-3-(2-naphthyl)benzoyl]-3-hydroxy-imidazolidin-4-one], which IC50 is on record?
**A.** The IC50 was at most 1000 nM.

**Q.** With `O=C1CN(C(=O)c2c(F)cccc2F)C(c2cc(C3CC3)cs2)N1O` (stereo not drawn) [Example 109, 2-(4-Cyclopropyl-2-thienyl)-1-(2,6-difluorobenzoyl)-3-hydroxy-imidazolidin-4-one] as the compound, how does the IC50 read?
**A.** The IC50 was ≤ 5000 nM and 1000 to 5000 nM.

**Q.** `O=C1CN(C(=O)c2c(F)ccc(-c3ccccc3)c2F)C(c2cc(Br)cs2)N1O` (stereo not drawn) [Example 122, 2-(4-Bromo-2-thienyl)-1-(2,6-difluoro-3-phenyl-benzoyl)-3-hydroxy-imidazolidin-4-one] was tested. Which IC50 did it give?
**A.** The IC50 was at most 1000 nM.

**Q.** With `O=C1CN(C(=O)c2c(F)cccc2F)C(c2ccc(Br)s2)N1O` (single isomer, unassigned) [Example 49b, 2-(5-Bromo-2-thienyl)-1-(2,6-difluorobenzoyl)-3-hydroxy-imidazolidin-4-one] as the compound, how does the IC50 read?
**A.** Its IC50 is at most 1000 nM.

**Q.** `O=C1CN(C(=O)c2cccc(Cl)c2Cl)C(c2cc(Br)cs2)N1O` (stereo not drawn) [Example 69, 2-(4-Bromo-2-thienyl)-1-(2,3-dichlorobenzoyl)-3-hydroxy-imidazolidin-4-one] was tested. Which IC50 did it give?
**A.** The IC50 was at most 1000 nM.

**Q.** With `CSc1ccc(C2N(O)C(=O)CN2C(=O)c2ccccc2F)s1` (stereo not drawn) [Example 13, 1-(2-Fluorobenzoyl)-3-hydroxy-2-(5-methylsulfanyl-2-thienyl)imidazolidin-4-one] as the compound, how does the IC50 read?
**A.** The IC50 was ≤ 5000 nM and 1000 to 5000 nM.

**Q.** `C[C@@H](c1ccccc1)N1CC(=O)N(O)C1c1ccc(Br)s1` (single isomer, unassigned) [Example 120b] was tested. Which IC50 did it give?
**A.** Its IC50 is at most 1000 nM.

**Q.** With `O=C1CN(C(=O)c2ccc(Cl)cc2Cl)C(c2cc(Br)cs2)N1O` (stereo not drawn) [Example 68, 2-(4-Bromo-2-thienyl)-1-(2,4-dichlorobenzoyl)-3-hydroxy-imidazolidin-4-one] as the compound, how does the IC50 read?
**A.** The IC50 was ≤ 5000 nM and 1000 to 5000 nM.

**Q.** Which IC50 does the source give for `CC(C)C=Cc1cc(F)c(C(=O)N2CC(=O)N(O)C2c2cc(Br)cs2)c(F)c1` (stereo not drawn) [Example 94, 2-(4-Bromo-2-thienyl)-1-[2,6-difluoro-4-[3-methylbut-1-enyl]benzoyl]-3-hydroxy-imidazolidin-4-one] here?
**A.** The IC50 was at most 1000 nM.

**Q.** With `NCC#Cc1cc(F)c(C(=O)N2CC(=O)N(O)C2c2cc(Br)cs2)c(F)c1` (stereo not drawn) [Example 79, 1-[4-(3-Aminoprop-1-ynyl)-2,6-difluoro-benzoyl]-2-(4-bromo-2-thienyl)-3-hydroxy-imidazolidin-4-one] as the compound, how does the IC50 read?
**A.** Its IC50 is at most 1000 nM.

**Q.** Which IC50 does the source give for `COc1cc(F)c(C(=O)N2CC(=O)N(O)C2c2cc(Br)cs2)c(F)c1` (stereo not drawn) [Example 51, 2-(4-Bromo-2-thienyl)-1-(2,6-difluoro-4-methoxy-benzoyl)-3-hydroxy-imidazolidin-4-one] here?
**A.** The IC50 was at most 1000 nM.

**Q.** For `Nc1ccc(F)c(C(=O)N2CC(=O)N(O)C2c2cc(Br)cs2)c1F` (stereo not drawn) [Example 105, 1-(3-Amino-2,6-difluoro-benzoyl)-2-(4-bromo-2-thienyl)-3-hydroxy-imidazolidin-4-one], which IC50 is on record?
**A.** Its IC50 is at most 1000 nM.

**Q.** Which IC50 does the source give for `C#Cc1csc(C2N(O)C(=O)CN2C(=O)c2ccccc2F)c1` (stereo not drawn) [Example 35, 2-(4-Ethynyl-2-thienyl)-1-(2-fluorobenzoyl)-3-hydroxy-imidazolidin-4-one] here?
**A.** The IC50 was ≤ 5000 nM and 1000 to 5000 nM.

**Q.** `O=C1CN(C(=O)c2c(F)cccc2F)C(c2ccc(Br)s2)N1O` (stereo not drawn) [Example 4, 2-(5-Bromo-2-thienyl)-1-(2,6-difluorobenzoyl)-3-hydroxy-imidazolidin-4-one] was tested. Which IC50 did it give?
**A.** Its IC50 is at most 1000 nM.

**Q.** For `CC(C)(N)C#Cc1cc(F)c(C(=O)N2CC(=O)N(O)C2c2cc(Br)cs2)c(F)c1` (stereo not drawn) [Example 81, 1-[4-(3-Amino-3-methyl-but-1-ynyl)-2,6-difluoro-benzoyl]-2-(4-bromo-2-thienyl)-3-hydroxy-imidazolidin-4-one], which IC50 is on record?
**A.** The IC50 was at most 1000 nM.

**Q.** `O=C1CN(C(=O)c2c(F)cccc2F)C(c2nc(Br)cs2)N1O` (stereo not drawn) [Example 22, 2-(4-Bromothiazol-2-yl)-1-(2,6-difluorobenzoyl)-3-hydroxy-imidazolidin-4-one] was tested. Which IC50 did it give?
**A.** Its IC50 is ≤ 5000 nM and 1000 to 5000 nM.

**Q.** How did the IC50 turn out when `NS(=O)(=O)NCCCc1cc(F)c(C(=O)N2CC(=O)N(O)C2c2cc(Br)cs2)c(F)c1` (stereo not drawn) [Example 93, 2-(4-Bromo-2-thienyl)-1-[2,6-difluoro-4-[3-(sulfamoylamino)propyl]benzoyl]-3-hydroxy-4-oxo-imidazolidine] was run?
**A.** Its IC50 is at most 1000 nM.

**Q.** Which IC50 does the source give for `O=C1CN(C(=O)c2c(F)cccc2F)C(c2cc(I)c(F)s2)N1O` (stereo not drawn) [Example 116, 1-(2,6-Difluorobenzoyl)-2-(5-fluoro-4-iodo-2-thienyl)-3-hydroxy-imidazolidin-4-one] here?
**A.** Its IC50 is at most 1000 nM.

**Q.** Which IC50 does the source give for `CC(=O)NCC#Cc1cc(F)c(C(=O)N2CC(=O)N(O)C2c2cc(Br)cs2)c(F)c1` (stereo not drawn) [Example 130, N-[3-[4-[2-(4-Bromo-2-thienyl)-3-hydroxy-4-oxo-imidazolidine-1-carbonyl]-3,5-difluoro-phenyl]prop-2-ynyl]acetamide] here?
**A.** The IC50 was at most 1000 nM.

**Q.** How did the IC50 turn out when `Cn1cc(-c2cc(F)c(C(=O)N3CC(=O)N(O)C3c3cc(Br)cs3)c(F)c2)cn1` (stereo not drawn) [Example 86, 2-(4-Bromo-2-thienyl)-1-[2,6-difluoro-4-(1-methylpyrazol-4-yl)benzoyl]-3-hydroxy-imidazolidin-4-one] was run?
**A.** The IC50 was at most 1000 nM.

**Q.** Which IC50 does the source give for `NS(=O)(=O)N1CCC(C(=O)N2CC(=O)N(O)C2c2cc(Br)cs2)CC1` (stereo not drawn) [Example 108, 4-[2-(4-Bromo-2-thienyl)-3-hydroxy-4-oxo-imidazolidine-1-carbonyl]piperidine-1-sulfonamide] here?
**A.** Its IC50 is ≤ 5000 nM and 1000 to 5000 nM.

**Q.** With `O=C1CN(C(=O)c2c(F)ccc(Br)c2F)C(c2csc(Br)c2)N1O` (stereo not drawn) [Example 101, 1-(3-Bromo-2,6-difluoro-benzoyl)-2-(5-bromo-3-thienyl)-3-hydroxy-imidazolidin-4-one] as the compound, how does the IC50 read?
**A.** The IC50 was at most 1000 nM.

**Q.** How did the IC50 turn out when `O=C1CN(C(=O)c2c(F)cccc2Cl)C(c2cc(Br)cs2)N1O` (stereo not drawn) [Example 7, 2-(4-Bromo-2-thienyl)-1-(2-chloro-6-fluoro-benzoyl)-3-hydroxy-imidazolidin-4-one] was run?
**A.** The IC50 was at most 1000 nM.

**Q.** How did the IC50 turn out when `O=C1CN(C(=O)c2c(F)cccc2F)C(c2csc(Br)c2)N1O` (stereo not drawn) [Example 28, 2-(5-Bromo-3-thienyl)-1-(2,6-difluorobenzoyl)-3-hydroxy-imidazolidin-4-one] was run?
**A.** The IC50 was at most 1000 nM.

**Q.** With `O=C1CN(C(=O)c2ccc(C(F)(F)F)cc2F)C(c2cc(Br)cs2)N1O` (stereo not drawn) [Example 64, 2-(4-Bromo-2-thienyl)-1-[2-fluoro-4-(trifluoromethyl)benzoyl]-3-hydroxy-imidazolidin-4-one] as the compound, how does the IC50 read?
**A.** Its IC50 is ≤ 5000 nM and 1000 to 5000 nM.

**Q.** How did the IC50 turn out when `NS(=O)(=O)NC1(C#Cc2cc(F)c(C(=O)N3CC(=O)N(O)C3c3cc(Br)cs3)c(F)c2)CC1` (stereo not drawn) [Example 90, 2-(4-Bromo-2-thienyl)-1-[2,6-difluoro-4-[2-[1-(sulfamoylamino)cyclopropyl]ethynyl]benzoyl]-3-hydroxy-4-oxo-imidazolidine] was run?
**A.** The IC50 was at most 1000 nM.

**Q.** Which IC50 does the source give for `O=C1CN(C(=O)c2c(F)ccc(-c3cccc4ccccc34)c2F)C(c2cc(Br)cs2)N1O` (stereo not drawn) [Example 134, 2-(4-Bromo-2-thienyl)-1-[2,6-difluoro-3-(1-naphthyl)benzoyl]-3-hydroxy-imidazolidin-4-one] here?
**A.** The IC50 was at most 1000 nM.

**Q.** For `O=C1CN(C(=O)c2c(F)cccc2F)C(c2cc(Cl)cs2)N1O` (stereo not drawn) [Example 33, 2-(4-Chloro-2-thienyl)-1-(2,6-difluorobenzoyl)-3-hydroxy-imidazolidin-4-one], which IC50 is on record?
**A.** Its IC50 is at most 1000 nM.

**Q.** With `C[C@@H](c1ccccc1)N1CC(=O)N(O)C1c1cc(I)cs1` (single isomer, unassigned) [Example 119b] as the compound, how does the IC50 read?
**A.** The IC50 was at most 1000 nM.

**Q.** `O=C1CN(C(=O)c2c(F)cccc2F)C(c2cc(Br)c(F)s2)N1O` (stereo not drawn) [Example 37, 2-(4-Bromo-5-fluoro-2-thienyl)-1-(2,6-difluorobenzoyl)-3-hydroxy-imidazolidin-4-one] was tested. Which IC50 did it give?
**A.** The IC50 was at most 1000 nM.

Same assay, conditions: stated in the synthesis examples; assay not named

**Q.** With `O=C1CN(C(=O)c2c(F)cccc2F)C(c2ccc(Br)s2)N1O` (single isomer, unassigned) [Example 49b, 2-(5-Bromo-2-thienyl)-1-(2,6-difluorobenzoyl)-3-hydroxy-imidazolidin-4-one] as the compound, how does the “relative activity of the separated isomers” value (from here on “relative activity”) read?
**A.** Its value is “most active isomer”.

**Q.** `C[C@@H](c1ccccc1)N1CC(=O)N(O)C1c1ccc(Br)s1` (single isomer, unassigned) [Example 120b] was tested. Which “relative activity” value did it give?
**A.** Its value is “most active isomer”.

**Q.** How did the “relative activity” value turn out when `O=C1CN(C(=O)c2c(F)cccc2F)C(c2cc(Br)c(F)s2)N1O` (single isomer, unassigned) [Example 110b, 2-(4-Bromo-5-fluoro-2-thienyl)-1-(2,6-difluorobenzoyl)-3-hydroxy-imidazolidin-4-one] was run?
**A.** Its value is “less active isomer”.

**Q.** `C[C@@H](c1ccccc1)N1CC(=O)N(O)C1c1csc(Br)c1` (single isomer, unassigned) [Example 121a] was tested. Which “relative activity” value did it give?
**A.** Its value is “less active isomer”.

**Q.** How did the “relative activity” value turn out when `C[C@@H](c1ccccc1)N1CC(=O)N(O)C1c1cc(I)cs1` (single isomer, unassigned) [Example 119b] was run?
**A.** Its value is “most active isomer”.

**Q.** How did the “relative activity” value turn out when `C[C@@H](c1ccccc1)N1CC(=O)N(O)C1c1cc(I)cs1` (single isomer, unassigned) [Example 119a] was run?
**A.** The value was “less active isomer”.
